Results as given in ChEMBL document CHEMBL3400004, “Novel fused tetrathiocines as antivirals that target the nucleocapsid zinc finger containing protein of the feline immunodeficiency virus (FIV) as a model of HIV infection” (Bioorg Med Chem Lett, 2015).

How the values were obtained:
[1] = Cytotoxicity against cat CRFK cells assessed as cell viability at 10 uM after 24 hrs by MTT assay; type: cell-based, Felis catus; conditions: read-out: Activity
[2] = Cytotoxicity against IL2-independent cat FL-4 cells assessed as reduction in cell viability after 7 days by MTT assay; type: cell-based, Felis catus; conditions: IL2-independent FL-4 cells
[3] = Therapeutic index, ratio of CC50 for cat FL-4 cells to EC50 for Feline immunodeficiency virus infected in cat FL-4 cells; type: cell-based; conditions: read-out: Ratio CC50/EC50
[4] = tested on: Feline immunodeficiency virus; assay: Antiviral activity against Feline immunodeficiency virus infected in cat FL-4 cells assessed as inhibition of viral replication after 7 days by quantitative RT-PCR analysis; type: functional, organism-based; conditions: FL-4, 168 h

Structure (SMILES) | EC50 [4] | viability at 24 h, 10 µM [1] | CC50 at 168 h [2] | selectivity ratio [3]
COc1cc2c(cc1OC)SSc1cc(OC)c(OC)cc1SS2 | 0.0309 µM | 75.3% | > 100 µM | > 3240
c1c2c(cc3c1SSc1cc4c(cc1SS3)OCO4)OCO2 | 0.0932 µM | 77% | 5.79 µM | 62.1
c1c2c(cc3c1SSc1cc4c(cc1SS3)OCCO4)OCCO2 | 0.0689 µM | 91.1% | > 100 µM | > 1450
CC(C)(C)n1cc2c(c1)SSc1cn(C(C)(C)C)cc1SS2 | 14.5 µM | > 100% | > 100 µM | > 6.9
Cc1nnc(C(=O)NC(C)(C)c2nc(C(=O)NCc3ccc(F)cc3)c(O)c(=O)n2C)o1 [RALTEGRAVIR] | – | > 100% | > 100 µM | > 10000
Cc1cn([C@H]2C[C@H](N=[N+]=[N-])[C@@H](CO)O2)c(=O)[nH]c1=O [ZIDOVUDINE] | – | > 100% | > 100 µM | > 18.8

Continued, in another order:

EC50 [4] | Structure (SMILES) | viability at 24 h, 10 µM [1] | CC50 at 168 h [2] | selectivity ratio [3]
> 100 µM | CCN(CC)c1sc(N(CC)CC)c2c1SSc1c(N(CC)CC)sc(N(CC)CC)c1SS2 | > 100% | > 100 µM | 1
0.205 µM | Cn1c(Cl)c2c(c1Cl)SSc1c(c(Cl)n(C)c1Cl)SS2 | > 100% | > 100 µM | > 489
> 100 µM | CCn1c(Cl)c2c(c1Cl)SSc1c(c(Cl)n(CC)c1Cl)SS2 | > 100% | > 100 µM | 1
60.7 µM | CCn1c(C)c2c(c1C)SSc1c(c(C)n(CC)c1C)SS2 | > 100% | > 100 µM | 1.6
3.08 µM | Cc1c2c(c(C)n1Cc1ccccc1)SSc1c(c(C)n(Cc3ccccc3)c1C)SS2 | > 100% | 58.2 µM | 18.9
0.0429 µM | Cn1c2c(c3ccccc31)SSc1c(c3ccccc3n1C)SS2 | > 100% | > 100 µM | > 2330
